pKi: −log10 of the molar value. Each block holds one compound with its values, some of them ahead of it.
Molecular target: T1, aspartate N-acetyltransferase (ANAT) (Homo sapiens, UniProt Q8N9F0)
T1 construct: 6xHis (C); made in house; host or cells: E. coli BL21(DE3)
T1 sequence (Q8N9F0 1-302): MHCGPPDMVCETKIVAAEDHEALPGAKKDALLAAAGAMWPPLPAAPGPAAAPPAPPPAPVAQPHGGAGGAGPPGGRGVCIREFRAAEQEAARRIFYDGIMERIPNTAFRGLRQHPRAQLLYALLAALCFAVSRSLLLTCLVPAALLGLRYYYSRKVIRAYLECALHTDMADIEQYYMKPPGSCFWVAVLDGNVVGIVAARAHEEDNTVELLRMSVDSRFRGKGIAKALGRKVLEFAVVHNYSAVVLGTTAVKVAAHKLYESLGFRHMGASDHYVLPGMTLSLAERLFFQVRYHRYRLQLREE
Assay: ANAT in vitro activity assay (DTNB, coenzyme A production)
Type: biochemical
Details: for pKi: dose-response protocol, competitive inhibition fit, Km for L-aspartate 160 μM; for potency against ANAT: dose-response protocols, in words
Method: The experimental assay was based on a custom protocol developed by the Viola lab described previously (see, e.g., Thangavelu et al., 2017, “Design and optimization of aspartate N-acetyltransferase inhibitors for the potential treatment of Canavan disease,” Bioorganic & Medicinal Chemistry, 25(3), pp. 870-885). Each of the purchased compounds was tested in an initial screen at 1 mM, followed by a second screen of the initial inhibitors at 50 μM.
The challenge of solubilizing and purifying the membrane-associated enzyme ANAT has been addressed through the creation of a fusion construct with maltose binding protein (MBP) as a fusion partner, as described previously. Briefly, aspartate ANAT was expressed with an N-terminal MBP tag in E. coli BL21(DE3) cells. A 6×His-tag was inserted at the C-terminal of the enzyme to facilitate purification. 20 ml LB media was grown overnight from a single colony in the presence of kanamycin at a final concentration of 50 μg/ml at 37° C. The overnight culture was then diluted into 2 L LB media and grown with shaking at 37° C. until the OD600 reached 0.6. Isopropyl β-D-thiogalactopyranoside (IPTG) was then added at a final concentration of 0.1 mM for induction, and cell growth continued at 16° C. for 16-20 hours. The cell culture was harvested by centrifugation at 11,000 rpm for 15 min. The cells were then resuspended in binding buffer consisting of 20 mM potassium phosphate, pH 7.4, 300 mM NaCl, 20 mM imidazole, and 10% glycerol. The cells were lysed by adding lysozyme (50 μg/ml of buffer) and DNAse (5 μg/ml of buffer) in an ultrasonic dismembrator, followed by clarification of the cells by centrifugation at 11,000 rpm to remove the insoluble cell debris. The clarified supernatant was loaded onto a Ni-NTA column and eluted with a 20-300 mM imidazole gradient in the binding buffer using an AKTA chromatography system. The fractions containing active enzyme purified from the Ni-NTA column were pooled and loaded onto a dextrin-Sepharose column for further purification. The MBP-ANAT fusion enzyme was eluted from this column by using a 0-10 mM maltose gradient. SDS-PAGE gel was run to confirm the molecular weight and purity of the enzyme.
ANAT activity was measured by monitoring the production of coenzyme A using 5,5′-dithio-bis-[2-nitrobenzoic acid] (DTNB). […] The increasing absorption at 412 nm was monitored for up to 30 min during the reaction. 10% DMSO was maintained in the first screen while 20% DMSO was used in the second screen to dissolve the insoluble or partially soluble compounds in the assay wells.
Ki was calculated using the competitive inhibition routine within the nonlinear regression module of GraphPad Prism 8.3.0 with the following equation: […]
where Km for L-aspartate was set to 160 μM, and [I] and [S] denote the concentrations of the inhibitor and substrate, respectively.

SMILES: CCOC(=O)c1sc(NC(=O)COC(=O)Cn2c(=O)cnc3ccccc32)cc1C [Formula 2, Ethyl 3-methyl-5-{2-[(2-oxo-1H-quinoxalin-1-yl)acetoxy]acetylamino}-2-thenoate]
pKi: 5.07
potency against ANAT: low-micromolar

SMILES: Cc1c(C(=O)O)sc2[nH]c(=O)cc(CSc3nnc(C4CC4)[nH]3)c12 [Formula 4, 4-[(5-Cyclopropyl-4H-1,2,4-triazol-3-ylthio)methyl]-3-methyl-6-oxo-1-thia-7-aza-7H-indene-2-carboxylic acid]
pKi: 5.35
potency against ANAT: low-micromolar

Further lines, results first:

pKi: 5.09
potency against ANAT: low-micromolar
SMILES: Nc1cc(N)nc(SCc2ncc(-c3ccc(F)cc3)o2)n1 [Formula 1, 2-{[5-(p-Fluorophenyl)-1,3-oxazol-2-yl]methylthio}-4,6-pyrimidinediamine]

pKi: 5.04
potency against ANAT: low-micromolar
SMILES: Cc1nnc(SCc2nnc(-c3c(-c4ccccc4)noc3C)o2)s1 [Formula 3, 5-(5-Methyl-3-phenyl-4-isoxazolyl)-2-[(5-methyl-1,3,4-thiadiazol-2-ylthio)methyl]-1,3,4-oxadiazole]

pKi: 6.04
potency against ANAT: low-micromolar
SMILES: O=C(OCCSc1ccc([N+](=O)[O-])c2nonc12)c1ccc(Cl)cc1Cl [Formula 5, 2-(7-Nitro-2,1,3-benzofurazan-4-ylthio)ethyl 2,4-dichlorobenzoate]

From patent publication US20230128972A1, “Anat Inhibitors and Methods of Use Thereof” (Atomwise Inc., priority 2020, published 2023)
